The target in the experiment is T1, human vasopressin V1b receptor (Homo sapiens, UniProt P47901).
T1 construct: expressed in transfected cells; host or cells: CHO-K1 (cell line hV1b-3H2_CHO), membrane preparation
T1 sequence (P47901 1-424): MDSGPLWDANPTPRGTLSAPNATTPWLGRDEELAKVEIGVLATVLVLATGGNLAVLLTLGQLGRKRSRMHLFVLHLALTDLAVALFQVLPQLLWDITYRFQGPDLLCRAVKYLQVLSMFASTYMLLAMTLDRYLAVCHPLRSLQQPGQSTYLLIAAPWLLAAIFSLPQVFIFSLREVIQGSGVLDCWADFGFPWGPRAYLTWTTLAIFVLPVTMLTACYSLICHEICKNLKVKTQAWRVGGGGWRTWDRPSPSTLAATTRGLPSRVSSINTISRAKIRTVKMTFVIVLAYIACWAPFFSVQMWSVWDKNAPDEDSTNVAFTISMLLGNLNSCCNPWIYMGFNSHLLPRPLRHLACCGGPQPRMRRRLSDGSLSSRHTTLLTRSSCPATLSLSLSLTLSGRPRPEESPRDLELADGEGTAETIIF
The experiment can be described thus: Vasopressin V1b receptor binding assay. Conditions: membranes from CHO-K1 cells with stably expressed human V1b receptors; displacement of 1.5 nM 3H-AVP; read-out: V1b receptor affinity (affinity constant Ki). In a few lines: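 Ki values come from nonlinear regression of triplicate scintillation counts after filtration. Test compound (2% DMSO in the mixture) and radioligand were incubated 60 min at room temperature with human V1b membranes in pH 7.4 Tris buffer with 10 mM MgCl2 and 0.1% BSA. Nonspecific binding was set with 1 uM AVP.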

SMILES strings stand for the structures.

The values below come from US8791148B2, “Substituted benzimidazolone derivatives, medicaments comprising them and their use” (AbbVie Deutschland GmbH & Co. KG, priority 2006, dated 2014).

For orientation: Ki means the equilibrium dissociation constant of an inhibitor or competing ligand from its target.

As for `COc1ccc(S(=O)(=O)n2c(=O)n(C(C(=O)N3CCCC(N4CCN(Cc5ccccc5)CC4)C3)c3ccccc3)c3cc(Cl)ccc32)cc1` (stereo not drawn) [Example 139, 3-{2-[3-(4-Benzylpiperazin-1-yl)piperidin-1-yl]-2-oxo-1-phenylethyl}-5-chloro-1-(4-methoxybenzenesulfonyl)-1,3-dihydrobenzimidazol-2-one], the Ki is less than 100 nM.
Regarding `COc1ccc(S(=O)(=O)n2c(=O)n(C(C(=O)N3CC[C@H](N4CCN(Cc5ccccc5)CC4)C3)c3ccccc3)c3cc(Cl)ccc32)cc1` (stereo partly drawn) [Example 140, 3-{2-[(S)-3-(4-Benzylpiperazin-1-yl)pyrrolidin-1-yl]-2-oxo-1-phenylethyl}-5-chloro-1-(4-methoxybenzenesulfonyl)-1,3-dihydrobenzimidazol-2-one], the Ki was less than 100 nM.
For `COc1ccc(S(=O)(=O)n2c(=O)n(C(C(=O)N3CCC(N4CCN(Cc5ccccc5)CC4)C3)c3ccccc3)c3cc(Cl)ccc32)cc1` (stereo not drawn) [Example 141, 3-{2-[3-(4-Benzylpiperazin-1-yl)-pyrrolidin-1-yl]-2-oxo-1-phenylethyl}-5-chloro-1-(4-methoxybenzenesulfonyl)-1,3-dihydrobenzimidazol-2-one], the Ki was less than 100 nM.
Turning to `COc1ccc(S(=O)(=O)n2c(=O)n(C(C(=O)N3CC[C@@H](N4CCN(Cc5ccccc5)CC4)C3)c3ccccc3)c3cc(Cl)ccc32)cc1` (stereo partly drawn) [Example 142, 3-{2-[(R)-3-(4-Benzylpiperazin-1-yl)-pyrrolidin-1-yl]-2-oxo-1-phenylethyl}-5-chloro-1-(4-methoxybenzenesulfonyl)-1,3-dihydrobenzimidazol-2-on], the Ki was 100 to 500 nM.
The same measure for `COc1ccc(S(=O)(=O)n2c(=O)n(C(C(=O)N3CC[C@H](N4CCN(Cc5ccccc5)CC4)C3)c3ccccc3)c3cc(C#N)ccc32)cc1` (stereo partly drawn) [Example 143, 3-{2-[(S)-3-(4-Benzylpiperazin-1-yl)-pyrrolidin-1-yl]-2-oxo-1-phenylethyl}-1-(4-methoxybenzenesulfonyl)-2-oxo-2,3-dihydro-1H-benzimidazole-5-carbonitrile]: less than 100 nM; for `COc1ccc(S(=O)(=O)n2c(=O)n(C(C(=O)N3CC[C@@H](N4CCN(Cc5ccccc5)CC4)C3)c3ccccc3)c3cc(C#N)ccc32)cc1` (stereo partly drawn) [Example 144, 3-{2-[(R)-3-(4-Benzylpiperazin-1-yl)-pyrrolidin-1-yl]-2-oxo-1-phenylethyl}-1-(4-methoxybenzenesulfonyl)-2-oxo-2,3-dihydro-1H-benzimidazole-5-carbonitrile]: 500 to 10000 nM.
The same measure for `COc1ccc(S(=O)(=O)n2c(=O)n(C(C(=O)N3CC[C@@H](N4CCNCC4)C3)c3ccccc3)c3cc(Cl)ccc32)cc1` (stereo partly drawn) [Example 145, 5-Chloro-1-(4-methoxybenzenesulfonyl)-3-[2-oxo-1-phenyl-2-((R)-3-piperazin-1-yl-pyrrolidin-1-yl)-ethyl]-1,3-dihydrobenzimidazol-2-one]: less than 100 nM; for `COc1ccc(S(=O)(=O)n2c(=O)n(C(C(=O)N3CCC(N4CCNCC4)C3)c3ccccc3)c3cc(Cl)ccc32)cc1` (stereo not drawn) [Example 146, 5-Chloro-1-(4-methoxybenzenesulfonyl)-3-[2-oxo-1-phenyl-2-(3-piperazin-1-ylpyrrolidin-1-yl)-ethyl]-1,3-dihydrobenzimidazol-2-one]: less than 100 nM; for `COc1ccc(S(=O)(=O)n2c(=O)n(C(C(=O)N3CCCC(N4CCNCC4)C3)c3ccccc3)c3cc(Cl)ccc32)cc1` (stereo not drawn) [Example 147, 5-Chloro-1-(4-methoxybenzenesulfonyl)-3-[2-oxo-1-phenyl-2-(3-piperazin-1-ylpiperidin-1-yl)ethyl]-1,3-dihydrobenzimidazol-2-one]: less than 100 nM.
As for `COc1ccc(S(=O)(=O)n2c(=O)n(C(C(=O)N3CC(N4CCNCC4)C3)c3ccccc3)c3cc(Cl)ccc32)cc1` (stereo not drawn) [Example 148, 5-Chloro-1-(4-methoxybenzenesulfonyl)-3-[2-oxo-1-phenyl-2-(3-piperazin-1-ylazetidin-1-yl)ethyl]-1,3-dihydrobenzimidazol-2-one], the Ki was in the range of 100 to 500 nM.
Take `COc1ccc(S(=O)(=O)n2c(=O)n(C(C(=O)N3CC[C@H](N4CCNCC4)C3)c3ccccc3)c3cc(Cl)ccc32)cc1` (stereo partly drawn) [Example 149, 5-Chloro-1-(4-methoxybenzenesulfonyl)-3-[2-oxo-1-phenyl-2-((S)-3-piperazin-1-ylpyrrolidin-1-yl)ethyl]-1,3-dihydrobenzimidazol-2-one]: the Ki is less than 100 nM.
`COc1ccc(S(=O)(=O)n2c(=O)n(C(C(=O)N3CC[C@H](N4CCNCC4)C3)c3ccccc3)c3cc(C#N)ccc32)cc1` (stereo partly drawn) [Example 150, 1-(4-Methoxybenzenesulfonyl)-2-oxo-3-[2-oxo-1-phenyl-2-((S)-3-piperazin-1-ylpyrrolidin-1-yl)ethyl]-2,3-dihydro-1H-benzimidazole-5-carbonitrile]: the inhibition constant Ki is less than 100 nM.
As for `COc1ccc(S(=O)(=O)n2c(=O)n(C(C(=O)N3CC[C@@H](N4CCNCC4)C3)c3ccccc3)c3cc(C#N)ccc32)cc1` (stereo partly drawn) [Example 151, 1-(4-Methoxybenzenesulfonyl)-2-oxo-3-[2-oxo-1-phenyl-2-((R)-3-piperazin-1-ylpyrrolidin-1-yl)ethyl]-2,3-dihydro-1H-benzimidazole-5-carbonitrile], the Ki was less than 100 nM.
The same measure for `CCN1CCN([C@H]2CCN(C(=O)C(c3ccccc3)n3c(=O)n(S(=O)(=O)c4ccc(OC)cc4)c4ccc(Cl)cc43)C2)CC1` (stereo partly drawn) [Example 152, 5-Chloro-3-{2-[(S)-3-(4-ethylpiperazin-1-yl)pyrrolidin-1-yl]-2-oxo-1-phenylethyl}-1-(4-methoxybenzenesulfonyl)-1,3-dihydrobenzimidazol-2-one]: less than 100 nM.
Under `COc1ccc(S(=O)(=O)n2c(=O)n(C(C(=O)N3CC[C@H](N4CCN(C)CC4)C3)c3ccccc3)c3cc(Cl)ccc32)cc1` (stereo partly drawn) [Example 153, 5-Chloro-1-(4-methoxybenzenesulfonyl)-3-{2-[(S)-3-(4-methylpiperazin-1-yl)pyrrolidin-1-yl]-2-oxo-1-phenylethyl}-1,3-dihydrobenzimidazol-2-one] stands less than 100 nM.
As for `CCCN1CCN(C2CN(C(=O)C(c3ccccc3)n3c(=O)n(S(=O)(=O)c4ccc(OC)cc4)c4ccc(Cl)cc43)C2)CC1` (stereo not drawn) [Example 154, 5-Chloro-1-(4-methoxybenzenesulfonyl)-3-{2-oxo-1-phenyl-2-[3-(4-propylpiperazin-1-yl)azetidin-1-yl]ethyl}-1,3-dihydrobenzimidazol-2-one], the Ki was 100 to 500 nM.
Regarding `CCCN1CCN(C2CCCN(C(=O)C(c3ccccc3)n3c(=O)n(S(=O)(=O)c4ccc(OC)cc4)c4ccc(Cl)cc43)C2)CC1` (stereo not drawn) [Example 155, 5-Chloro-1-(4-methoxybenzenesulfonyl)-3-{2-oxo-1-phenyl-2-[3-(4-propylpiperazin-1-yl)piperidin-1-yl]ethyl}-1,3-dihydrobenzimidazol-2-one], the Ki was less than 100 nM.
Turning to `COc1ccc(S(=O)(=O)n2c(=O)n(C(C(=O)N3CCCC(N4CCN(C)CC4)C3)c3ccccc3)c3cc(Cl)ccc32)cc1` (stereo not drawn) [Example 156, 5-Chloro-1-(4-methoxybenzenesulfonyl)-3-{2-[3-(4-methylpiperazin-1-yl)piperidin-1-yl]-2-oxo-1-phenylethyl}-1,3-dihydrobenzimidazol-2-one], the Ki is less than 100 nM.
